Reference: publication PMC11676875, “In Vitro Screening of an In-House Library of Structurally Distinct Chemotypes Towards the Identification of Novel SARS-CoV-2 Inhibitors” (Pharmaceuticals, 2024)
Where two headings read alike, the source gives them in different places.

What was measured:
[1] = tested on: SARS-CoV-2; test: microbe, parasite or virus in culture; format: cell-based, SARS-CoV-2 B1.1 lineage; settings: for IC50: Severe acute respiratory syndrome coronavirus 2, Vero C1008, 72 h, read-out: SARS-CoV-2 IC50
[2] = tested on: Dengue virus type 2; test: Activity against Dengue virus type 2 (unpublished results); format: cell-based
[3] = in vitro; settings: monkey
[4] = set-up: method as in PMID 29194347, PMID 37238706; settings: cited from earlier work
[5] = mice, i.p.; cited from earlier work
[6] = microsomes and hepatocytes of different species; cited from earlier work
[7] = non-human primates; cited from earlier work
[8] = tested on: SARS-CoV-2; settings: reference compound; cited from earlier work
[9] = tested on: SARS-CoV-2; set-up: method as in PMID 37367224; settings: lung epithelium cell line; cited from earlier work
[10] = molecular target: α4β2 subtype of the nicotinic receptor; set-up: method as in PMID 12088062; settings: cited from earlier work
[11] = set-up: method as in PMID 34116325; settings: cited from earlier work
[12] = tested on: SARS-CoV-2; settings: read-out: IC50 against SARS-CoV-2; cited from earlier work

| SMILES | IC50 [1] [µM] | CC50 [3] [µM] | SAR analysis summary of anti-SARS-CoV-2 activity [1] | also measured |
| --- | --- | --- | --- | --- |
| Oc1ccc(-n2nc3ccc(C(F)(F)F)cc3n2)cc1 [Compound 21] | > 20 | 25.4 |  | activity against SARS-CoV-2 [1]: no activity; IC50 [2]: 17 µM |
| CCN(CC)CCCn1c(Cn2nnc3ccccc32)nc2cc(C(C)=NNC(N)=S)ccc21 [Compound 15, 2-(1-{2-[(1H-Benzo[d][1,2, 3]triazol-1-yl)methyl]-1-[3-(N,N-diethylamino)propyl]-1H-benzo-[d]imidazol-5-yl}ethylidene)hydrazine-1-carbothioamide] | 14.9 | 67.1 |  |  |
| CCN(CC)CCCn1c(Cc2ccccc2)nc2cc(/C(C)=N\NC(N)=O)ccc21 [Compound 12] | > 100 | > 100 | Inactive/ Cytotoxic |  |
| Clc1ccc2c(NC[C@@H]3CCCN4CCCC[C@H]34)ccnc2c1 [Compound 10] | 2.2 | 44 |  | oral bioavailability [4]: excellent; volume of distribution [4]: high; maximum tolerated dose, MTD [5]: greater than 100 mg/Kg; metabolic stability [6]: good |
| c1ccc(Nc2cc3nc4ccccc4n(-c4ccccc4)c-3cc2=NCCCCC23CCCCN2CCCC3)cc1 [Compound 3] | 4 | 10.5 |  |  |
| CCN(CC)CCCn1c(Cc2ccccc2)nc2cc(C(C)=NNC(N)=S)ccc21 [Compound 13] | 20 | 96.1 |  |  |
| Cc1ccc(Nc2cc3nc4ccccc4n(-c4ccc(C)cc4)c-3cc2=NCC2CCCN3CCCCC23)cc1 (stereo not shown) [Compound 2] | 1.5 | 2.81 |  |  |
| c1ccc(Nc2cc3nc4ccccc4n(-c4ccccc4)c-3cc2=NCC23CCCN2CCC3)cc1 [Compound 5] | > 2 | 3.2 | Inactive/ Cytotoxic |  |
| CCN(CC)CCCC(C)Nc1ccnc2cc(Cl)ccc12 (stereo not shown) [CQ, chloroquine, reference compound] | 8.5 | 96.3 |  |  |
| Clc1ccc2c(NCC34CCCN3CCC4)ccnc2c1 [Compound 11] | 3.7 | 74.5 |  | oral bioavailability [4]: excellent; volume of distribution [4]: high; maximum tolerated dose, MTD [5]: greater than 100 mg/Kg; oral MTD [7]: 50 mg/kg/day; metabolic stability [6]: good |
| CC(=O)/C=C(/C)Nc1cccc2c3c([nH]c12)CCCC3 [Compound 25] | 90.1 | > 100 |  |  |
| CC(C)/N=c1\cc2n(-c3ccc(Cl)cc3)c3ccccc3nc-2cc1Nc1ccc(Cl)cc1 [clofazimine] |  |  |  | IC50 [8]: 0.31 µM; reduction in viral RNA load [9]: 25% |
| O=c1cccc2n1CC1CC2CN(C(=S)NC2CCCCC2)C1 (stereo not shown) [Compound 23] | 95.6 | > 100 |  | Ki [10]: 2.3 µM |
| Clc1ccc(Nc2cc3nc4ccccc4n(-c4ccc(Cl)cc4)c-3cc2=NCC23CCCN2CCC3)cc1 [Compound 6] | > 3 | 5.58 | Inactive/ Cytotoxic |  |
| CC(=NNC(N)=S)c1ccc2c(c1)nc(Cc1ccccc1)n2C[C@@H]1CCCN2CCCC[C@H]12 [Compound 14, 2-(1-{2-Benzyl-1-[((1S,9aR)-octahydro-2H-quinolizin-1-yl)methyl]-1H-benzo[d]imidazol-5-yl}-ethylidene)hydrazine-1-carbothioamide] | 12.2 | 70 |  |  |
| CC(=O)Oc1ccccc1C(=O)Oc1ccc(-c2cc(=S)ss2)cc1 [Compound 24] | > 10 | 32.9 |  | activity against SARS-CoV-2 [1]: no activity |
| CN1CCCC1=CN=Nc1cccc(Br)c1 [Compound 22] | > 20 | 26.8 |  | activity against SARS-CoV-2 [1]: no activity; IC50 [2]: 24 µM |
| Clc1ccc2c(c1)nc(Cn1nnc3ccccc31)n2CC[C@@H]1CCCN2CCCC[C@H]12 [Compound 20] | 6.95 | 19.4 |  |  |
| Clc1ccc(-n2c3cc(=NCCN4CCOCC4)c(Nc4cccnc4)cc-3nc3ccccc32)cc1 [Compound 8] |  | 1.74 | Inactive/ Cytotoxic |  |
| CCN(CC)CCCn1c(Cn2nnc3ccccc32)nc2cc(Cl)ccc21 [Compound 18] | 28.1 | 107 |  |  |
| Fc1ccc(Nc2cc3nc4ccccc4n(-c4ccc(F)cc4)c-3cc2=NCCCCC23CCCCN2CCCC3)cc1 [Compound 4] | > 1 | 2.19 | Inactive/ Cytotoxic |  |
| Clc1ccc(-n2c3cc(=NCCCN4CCCCC4)c(Nc4cccnc4)cc-3nc3ccccc32)cc1 [Compound 9] |  | 1.88 | Inactive/ Cytotoxic |  |
| Clc1ccc(Nc2cc3nc4ccccc4n(-c4ccc(Cl)cc4)c-3cc2=NCC2CCCN3CCCCC23)cc1 (stereo not shown) [Compound 1] | > 2 | 3.14 | Inactive/ Cytotoxic |  |
| CN1CCN(CCN=c2cc3n(-c4ccc(Cl)cc4)c4ccccc4nc-3cc2Nc2cccnc2)CC1 [Compound 7] |  | 2.62 | Inactive/ Cytotoxic | inhibition at 1 µM ([1]; Severe acute respiratory syndrome coronavirus 2, Vero C1008, read-out: % inhibition of viral replication): 20.5%; water solubility [11]: highly water soluble |
| Cc1ccc2c(c1)nc(Cn1nnc3ccccc31)n2CC[C@@H]1CCCN2CCCC[C@H]12 [Compound 19] | 15.3 | 76.3 |  |  |
| CCN(CCO)CCCC(C)Nc1ccnc2cc(Cl)ccc12 (stereo not shown) [hydroxychloroquine] |  |  |  | IC50 [12]: 0.72 µM |
